# Results published in ChEMBL document CHEMBL5625214, “Synthesis of glycyrrhizin analogues as HMGB1 inhibitors and their activity against sepsis in acute kidney injury” (Eur J Med Chem, 2023).
# Active and inactive are the calls of the source. No cut-off for these calls is given here.
# What was measured:
# [1] = Cytotoxicity against human WI-38 cells assessed as inhibition of cell viability incubated for 24 hrs by MTT assay; format: toxicity, cell-based
# [2] = Cytotoxicity against human HK-2 cells assessed as inhibition of cell viability incubated for 24 hrs by MTT assay; format: toxicity, cell-based
# [3] = Cytotoxicity against mouse RAW264.7 cells assessed as cell survival at 30 uM incubated for 24 hrs by MTT assay relative to control; format: toxicity, cell-based; conditions: read-out: Activity
# [4] = Cytotoxicity against rat H9c2 cells assessed as inhibition of cell viability incubated for 24 hrs by MTT assay; format: toxicity, cell-based
# [5] = test system: Huh-7; assay: Cytotoxicity against human Huh-7 cells assessed as inhibition of cell viability incubated for 24 hrs by MTT assay; format: functional, cell-based; conditions: Huh-7, 24 h
# [6] = test system: A549; assay: Cytotoxicity against human A549 cells assessed as inhibition of cell viability incubated for 24 hrs by MTT assay; format: functional, cell-based; conditions: A549, 24 h
# [7] = test system: RAW264.7; assay: Inhibition of NO release in mouse RAW264.7 cells incubated for 24 hrs by Griess reagent based assay; format: functional, cell-based; conditions: RAW264.7, 24 h
# [8] = Cytotoxicity against mouse RAW264.7 cells assessed as cell survival at 60 uM incubated for 24 hrs by MTT assay relative to control; format: toxicity, cell-based; conditions: read-out: Activity
# [9] = test system: Mus musculus; assay: Anti-septic activity in C57BL/6 mouse model assessed as reversal of LPS-induced inflammatory cell infiltration in renal interstitium at 15 mg/kg, ip qd treated for 7 days by H and E staining based analysis; format: functional, organism-based; conditions: time 7.0 day
# [10] = test system: Mus musculus; assay: Anti-septic activity in C57BL/6 mouse model assessed as reversal of LPS-induced disappearance of renal internal brush border structure at 30 mg/kg, ip qd treated for 7 days by H and E staining based analysis; format: functional, organism-based; conditions: time 7.0 day
# [11] = test system: Mus musculus; assay: Anti-septic activity in C57BL/6 mouse model assessed as reversal of LPS-induced kidney injury at 30 mg/kg, ip qd treated for 7 days by H and E staining based analysis; format: functional, organism-based; conditions: time 7.0 day
# [12] = test system: Mus musculus; assay: Anti-septic activity in C57BL/6 mouse model assessed as reversal of LPS-induced accumulation of interstitial vacoules in kidney at 30 mg/kg, ip qd treated for 7 days by H and E staining based analysis; format: functional, organism-based; conditions: time 7.0 day
# [13] = test system: Mus musculus; assay: Anti-septic activity in C57BL/6 mouse model assessed as reversal of LPS-induced inflammatory cell infiltration in renal interstitium at 30 mg/kg, ip qd treated for 7 days by H and E staining based analysis; format: functional, organism-based; conditions: time 7.0 day
# [14] = test system: Mus musculus; assay: Anti-septic activity in C57BL/6 mouse model assessed as reversal of LPS-induced damage of renal tubules at 15 to 30 mg/kg, ip qd treated for 7 days by H and E staining based analysis; format: functional, organism-based; conditions: dose 15-30 mg/kg, time 7.0 day
# [15] = test system: Mus musculus; assay: Anti-septic activity in C57BL/6 mouse model assessed as reversal of LPS-induced kidney injury at 15 mg/kg, ip qd treated for 7 days by H and E staining based analysis; format: functional, organism-based; conditions: time 7.0 day
IC50 [7],Structure (SMILES),IC50 at 24 h [1],IC50 at 24 h [2],"viability at 24 h, 30 µM [3]",IC50 at 24 h [4],IC50 [5],IC50 [6],"viability at 24 h, 60 µM [8]",Activity [9],Activity [10],Activity [11],Activity [12],Activity [13],Activity [14],Activity [15]
40.8 µM,CC(=O)OC[C@@H]1OC(n2cc(COC(=O)[C@@]3(C)CC[C@]4(C)CC[C@]5(C)C(=CC(=O)[C@@H]6[C@@]7(C)CC[C@H](OC(=O)CCc8ccccc8)C(C)(C)C7CC[C@]65C)[C@H]4C3)nn2)[C@H](OC(C)=O)[C@H](OC(C)=O)[C@@H]1OC(C)=O (stereo partly specified),590 µM,> 800 µM,> 70%,> 800 µM,174 µM,108 µM,,,,,,,,
,COC(=O)[C@@]1(C)CC[C@]2(C)CC[C@]3(C)C(=CC(=O)[C@@H]4[C@@]5(C)CC[C@H](OCc6cn(C7O[C@H](COC(C)=O)[C@H](OC(C)=O)[C@H](OC(C)=O)[C@H]7OC(C)=O)nn6)C(C)(C)C5CC[C@]43C)[C@H]2C1 (stereo partly specified),96.4 µM,42.2 µM,,92.4 µM,28 µM,39.4 µM,,,,,,,,
46.2 µM,CC(=O)OC[C@@H]1OC(n2cc(COC(=O)[C@@]3(C)CC[C@]4(C)CC[C@]5(C)C(=CC(=O)[C@@H]6[C@@]7(C)CC[C@H](OC(=O)CCc8ccccc8)C(C)(C)C7CC[C@]65C)[C@H]4C3)nn2)[C@@H](OC(C)=O)[C@H]1OC(C)=O (stereo partly specified),348 µM,557 µM,> 70%,330 µM,91.3 µM,92.8 µM,< 70%,,,,,,,
,COC(=O)[C@@]1(C)CC[C@]2(C)CC[C@]3(C)C(=CC(=O)[C@@H]4[C@@]5(C)CC[C@H](OCc6cn(C7O[C@H](COC(C)=O)[C@@H](OC(C)=O)[C@H]7OC(C)=O)nn6)C(C)(C)C5CC[C@]43C)[C@H]2C1 (stereo partly specified),93.9 µM,59.7 µM,,77 µM,30.1 µM,27.8 µM,,,,,,,,
30.8 µM,CC(=O)O[C@H]1[C@H](C)OC(n2cc(COC(=O)[C@@]3(C)CC[C@]4(C)CC[C@]5(C)C(=CC(=O)[C@@H]6[C@@]7(C)CC[C@H](OC(=O)CCc8ccccc8)C(C)(C)C7CC[C@]65C)[C@H]4C3)nn2)C[C@@H]1OC(C)=O (stereo partly specified),> 800 µM,> 800 µM,> 70%,406 µM,112 µM,100 µM,< 70%,,,,,,,
,COC(=O)[C@@]1(C)CC[C@]2(C)CC[C@]3(C)C(=CC(=O)[C@@H]4[C@@]5(C)CC[C@H](OCc6cn(C7O[C@H](COC(C)=O)[C@@H](OC(C)=O)[C@H](OC(C)=O)[C@H]7OC(C)=O)nn6)C(C)(C)C5CC[C@]43C)[C@H]2C1 (stereo partly specified),105 µM,56.1 µM,,87.8 µM,23.5 µM,32.7 µM,,,,,,,,
,COC(=O)[C@@]1(C)CC[C@]2(C)CC[C@]3(C)C(=CC(=O)[C@@H]4[C@@]5(C)CC[C@H](OCc6cn(C7O[C@H](COC(C)=O)[C@@H](OC(C)=O)[C@H](OC(C)=O)[C@@H]7OC(C)=O)nn6)C(C)(C)C5CC[C@]43C)[C@H]2C1 (stereo partly specified),89.4 µM,57.2 µM,,65.3 µM,19.7 µM,23.1 µM,,,,,,,,
20.7 µM,CC1(C)[C@@H](O[C@H]2O[C@H](C(=O)O)[C@@H](O)[C@H](O)[C@H]2O[C@@H]2O[C@H](C(=O)O)[C@@H](O)[C@H](O)[C@H]2O)CC[C@]2(C)[C@H]3C(=O)C=C4[C@@H]5C[C@@](C)(C(=O)O)CC[C@]5(C)CC[C@@]4(C)[C@]3(C)CC[C@@H]12 [GLYCYRRHIZIN],128 µM,160 µM,> 70%,102 µM,65.7 µM,80.3 µM,,inactive,Active,Active,Active,Active,Active,inactive
30.7 µM,CC(=O)OC[C@@H]1OC(n2cc(COC(=O)[C@@]3(C)CC[C@]4(C)CC[C@]5(C)C(=CC(=O)[C@@H]6[C@@]7(C)CC[C@H](OC(=O)CCc8ccccc8)C(C)(C)C7CC[C@]65C)[C@H]4C3)nn2)[C@@H](OC(C)=O)[C@H](OC(C)=O)[C@H]1OC(C)=O (stereo partly specified),> 800 µM,398 µM,> 70%,294 µM,206 µM,207 µM,,,,,,,,
22.8 µM,CC(=O)OC[C@@H]1OC(n2cc(COC(=O)[C@@]3(C)CC[C@]4(C)CC[C@]5(C)C(=CC(=O)[C@@H]6[C@@]7(C)CC[C@H](OC(=O)CCc8ccccc8)C(C)(C)C7CC[C@]65C)[C@H]4C3)nn2)[C@@H](OC(C)=O)[C@H](OC(C)=O)[C@@H]1OC(C)=O (stereo partly specified),201 µM,127 µM,,114 µM,86.2 µM,93.4 µM,< 70%,,,,,,,
